Data from patent US6846664B2, “Process for the preparation of protease inhibitor using novel alkalothermophilic bacillus sp” (priority 2000, dated 2005).
Ends that are not written are not given here.

Columns and labels:
Fusarium oxysporum = assay: Antifungal activity assay (mycelial growth / spore germination); format: cell-based
Source text: (§1) The fungal strains Trichoderma reesei (deposited at The National Collection for Industrial Micro-organisms, Pune India and bearing accession numbers NCIM 992, NCIM 1052- and NCIM 1186), Fusarium oxysporum (bearing accession numbers NCIM 1008, 1043, 1072), Aspergillus flavus (bearing accession numbers NCIM 535, 536, 538, 542), Aspergillus oryzae (bearing accession numbers NCIM 637, 643, 649, 1032), Fusarium moniliforme (bearing accession numbers NCIM 1099, 1100), Alternaria alternata (bearing accession numbers NCIM 887), Claviceps purpurea (bearing accession numbers NCIM 1046), Curvularia fallax (bearing accession numbers NCIM 714), Curvularia lunata (NCIM 716), Curvularia cymbopogonis (bearing accession numbers NCIM 695) and Penicillium fellatanum (bearing accession numbers NCIM 1227) were grown on potato dextrose agar slants for 7-8 days. The said fungal strains have characteristics similar to the strains deposited at American Type Culture Collection, USA and bearing accession number as under: • Trichoderma reesei NCIM 992-ATCC No.13631 • Trichoderma reesei NCIM 1052-ATCC No.24449 • Trichoderma reesei NCIM 1186-ATCC No.26921 Fungal mycelium from the freshly grown culture was inoculated at the centre of petri plates containing potato dextrose agar medium and incubated till they form small circular growth. The time period for the vegetative growth of different fungus is different. On the periphery of the advancing fungal mycelia, four filter paper discs were impregnated at equal distances, with four different concentrations of the inhibitor sample. The plates were incubated at room temperature for 24-48 h to check the crescent zone of the retarded mycelial growth. For sporulating fungus the applicants also had checked the inhibition by spore suspension method. In this method the agar slants were incubated at room temperature till they sporulate. 4 ml of sterile distilled water was added aseptically to the agar slant and the spores were scrapped by using an inoculation loop. 1 ml of this suspension was mixed with 4 ml of malt extract, glucose, yeast extract, peptone media containing 0.4% agarose and poured onto the potato dextrose agar plate. This plate was incubated at room temperature for 4-10 h. Filter paper discs were impregnated and different concentrations of the inhibitor was added onto it. The plates were further incubated at room temperature for 24-48 h and the inhibition zone against the growth was checked. […] The advantages of the Invention are
(§2) Inhibition of growth of fungi by the inhibitor was studied using inhibition assays against mycelial growth and spore germination.
(§3) For example-In case of mycelial growth inhibition assay, fungal mycelium from freshly grown culture was inoculated at the center of potato dextrose agar plate and incubated at 28° C. for 48-72 hours. Sterile filter paper discs impregnated with different concentrations of the inhibitor were placed on the periphery of the growing fungal mycelium. The plates were incubated at 28° C. and the crescent zones of the retarded mycelial growth were observed. In case of inhibition assay against spore-germination, fungal spore suspension was made in malt extract, glucose, yeast extract and peptone (MGYP) liquid medium. To the spore suspension, various concentration of the inhibitor was added. The resulting suspension was incubated at 28° C. for 24 hours. The germination of the spores in presence and absence of the inhibitor were checked under inverted microscope. The minimum inhibitory does MID of several fungal strains are given below in the Table 2.

Aspergillus flavus = assay: as above; format: cell-based
Source text: as §1, §2, §3

Aspergillus oryzae = assay: as above; format: cell-based
Source text: as §1, §2, §3

Alternaria alternata = assay: as above; format: cell-based
Source text: as §1, §2, §3

Fusarium moniliforme = assay: as above; format: cell-based; conditions: 28° C.
Source text: as §1, §2, §3

Trichoderma reesei = assay: as above; format: cell-based
Source text: as §1, §2, §3

pepsin = pepsin (Homo sapiens, UniProt P0DJD8); assay: Assay of pepsin inhibition (casein substrate, pH 2.0, OD 280 nm); format: biochemical; conditions: purified RP-HPLC compound
Chain of pepsin (P0DJD8 63-388): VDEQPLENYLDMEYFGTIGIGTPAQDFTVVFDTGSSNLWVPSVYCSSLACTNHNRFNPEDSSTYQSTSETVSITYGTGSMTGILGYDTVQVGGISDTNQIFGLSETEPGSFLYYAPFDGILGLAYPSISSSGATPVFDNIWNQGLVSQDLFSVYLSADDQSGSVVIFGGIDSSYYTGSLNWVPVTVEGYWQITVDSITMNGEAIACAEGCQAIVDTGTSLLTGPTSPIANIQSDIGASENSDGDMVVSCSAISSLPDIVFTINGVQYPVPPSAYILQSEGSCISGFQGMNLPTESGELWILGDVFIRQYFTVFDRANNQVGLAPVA
Source text: In a feature of the invention, the pepsin inhibitor was selectively purified by removing the high molecular weight compounds from the culture broth by treating it with activated charcoal. The charcoal treated broth was filtered through ultrafiltration membrane and concentrated by lyophilization. The concentrated inhibitor sample was loaded onto a reverse phase-high performance liquid chromatography column using a linear gradient of acetonitrile and triflouroacetate, and the peaks were checked for the inhibitor activity. […] This compound absorbs strongly at 210 nm. The compound was collected and checked as a single purified peptide after loading onto the HPLC column. One unit of inhibitor is defined as the amount of inhibitor which inhibits the protease activity expressed in terms of decrease in optical density of 0.001 per minute.
The protease pepsin was incubated in KC1-HC1 buffer, 0.02 M, pH-2.0, containing the inhibitor in various molar ratios at 37° C. for 30 min. After incubation the residual activity was determined and compared with the controls incubated without the inhibitor.
For example—To 0.05 ml of 100 mg/ml of aqueous solution of pepsin, 0.1 ml of the inhibitor solution was added. […] Precipitated excess casein was removed by filtration after incubation for one hour and the optical density was measured at 280 nm. […]

Curvularia fallax = assay: Mycelial growth inhibition, filter paper disc on potato dextrose agar; format: cell-based; conditions: Curvularia fallax NCIM 714; room temperature 24-48 h
Source text: as §1, with “are […]” for “are”

Curvularia lunata = assay: as above; format: cell-based; conditions: Curvularia lunata NCIM 716; room temperature 24-48 h
Source text: as §1, with “are […]” for “are”

Curvularia cymbopogonis = assay: as above; format: cell-based; conditions: Curvularia cymbopogonis NCIM 695; room temperature 24-48 h
Source text: as §1, with “are […]” for “are”

Claviceps purpurea = assay: as above; format: cell-based; conditions: Claviceps purpurea NCIM 1046; room temperature 24-48 h
Source text: as §1, with “are […]” for “are”

AGKKDDDDPPE [inhibitor]
inhibition of mycelial growth (Fusarium oxysporum; Fusarium oxysporum NCIM 1008, 1072, room temperature 24-48 h): strongly inhibit
MID (minimum inhibitory dose) (Fusarium oxysporum; Fusarium oxysporum, 28° C.): 2.300 mg
inhibition of mycelial growth (Aspergillus flavus; Aspergillus flavus NCIM 535, 542, room temperature 24-48 h): strongly inhibit
MID (minimum inhibitory dose) (Aspergillus flavus; Aspergillus flavus, 28° C.): 0.817 mg
inhibition of mycelial growth (Aspergillus oryzae; Aspergillus oryzae NCIM 637, 643, room temperature 24-48 h): strongly inhibit
MID (minimum inhibitory dose) (Aspergillus oryzae; Aspergillus oryzae, 28° C.): 1.147 mg
inhibition of mycelial growth (Alternaria alternata; Altemaria alternata NCIM 887, room temperature 24-48 h): strongly inhibit
MID (minimum inhibitory dose) (Alternaria alternata; Alternaria alternata, 28° C.): 0.582 mg
MID (minimum inhibitory dose) (Fusarium moniliforme): 1.840 mg
inhibition of mycelial growth (Trichoderma reesei; Trichoderma reesei NCIM 992, 1052, 1186, room temperature 24-48 h): strongly inhibit
MID (minimum inhibitory dose) (Trichoderma reesei; Trichoderma reesei, 28° C.): 0.292 mg
inhibition against pepsin (RP-HPLC peak) (pepsin): showed the inhibition
inhibition of mycelial growth (Curvularia fallax): strongly inhibit
inhibition of mycelial growth (Curvularia lunata): strongly inhibit
inhibition of mycelial growth (Curvularia cymbopogonis): strongly inhibit
inhibition of mycelial growth (Claviceps purpurea): strongly inhibit
